By DC50 is commonly meant the midpoint of the concentration-degradation curve. The low end stands for a more potent degrader, the high end for a less potent degrader. For orientation: Dmax means the largest share of the target that was removed.

SMILES strings stand for the structures.

For the assay, the system named is LRRK2. In words: Degradation of LRRK2 (immunoblots of treated cells). It is filed as cell-based. The conditions noted are these: 448T cells, immunoblot, concentrations 0 to 1000 nM. The method, then: Example 7: Degradation of LRRK2
Cell lines: Mouse embryonic fibroblast (MEF) WT, LRRK2 homozygous knock-ins in MEFs [R1441C; VPS35N(D620N); G2019S].
Tested concentrations of LRRK2 degraders: 0 nM; 10 nM; 30 nM; 100 nM; 300 nM; 1000 nM.
Experimental time points: 1 h; 6 h; 24 h and 48 h.
Complete growth medium: DMEM supplemented with 10% Fetal Bovine Serum; 1% pen/strep; 1% L-Glutamine; 1% MEM Non-essential Amino Acid Solution; 1% sodium pyruvate.
Treatment: WT MEF, and cells containing mutant LRRK2 (R1441C, VPS35N and G2019S) cells were plated at equal density into 6-well plates in a final volume of 3 mL of complete growth medium/well. Degraders were reconstituted in DMSO and used at 1:1000 in cells i.e., 3 μL/3 mL. Treatment began when cells were >60% confluent, starting from the longest, 48 h time point, followed by 24 h, 6 h and finally 1 h.
Cell lysis: Media were aspirated, plates were placed on ice and cells were washed with DPBS. Fifty (50) microliters of an ice-cold lysis buffer containing 50 mM Tris-HCl, pH 7.5, 1% (v/v) Triton X-100, 1 mM EGTA, 1 mM sodium orthovanadate, 50 mM NaF, 0.1% (v/v) 2-mercaptoethanol, 10 mM 2-glycerophosphate, 5 mM sodium pyrophosphate, 0.1 μg/mL microcystin-LR (Enzo Life Sciences), 270 mM sucrose and complete EDTA-free protease inhibitor cocktail (Sigma-Aldrich Cat #11836170001) were added per well. Lysates were centrifuged at 20 817 g (14,000 rpm) for 15 min at 4° C. and supernatants were used to determine protein concentration using Bradford assay (Pierce™ Coomassie (Bradford) Protein Assay Kit, Thermo Scientific Cat #23200) and for Western blot analysis.
Western blot analysis: Cell lysates were mixed with 4× SDS-PAGE sample buffer [50 mM Tris —HCl, pH 6.8, 2% (w/v) SDS, 10% (v/v) glycerol, 0.02% (w/v) Bromophenol Blue and 1% (v/v) 2-mercaptoethanol] to a final total protein concentration of 1 μg/μL and heated at 95° C. for 5 min. […]
Background: Immunoblotting shows a protein as a band on a membrane.

`CC1(Oc2ccc3[nH]nc(-c4cc(N5CCN(CC6CN(c7ccc8c(c7)C(=O)N(C7CCC(=O)NC7=O)C8=O)C6)CC5)ncn4)c3c2)CC1` (stereo not drawn) [Compound 1, 2-(2,6-dioxopiperidin-3-yl)-5-(3-((4-(6-(5-(1-methylcyclopropoxy)-1H-indazol-3-yl)pyrimidin-4-yl)piperazin-1-yl)methyl)azetidin-1-yl)isoindoline-1,3-dione]: half-maximal degradation (DC50) was put at 33 nM, the Dmax is given as 60% and the “degrader of LRRK2” value is listed as “potent degrader of LRRK2”.

(Values after patent US20240308982A1, “DEGRADERS OF WILD-TYPE AND MUTANT FORMS OF LRRK2 AND USES THEREOF” (DANA-FARBER CANCER INSTITUTE, INC., priority 2021, published 2024).)
